Molecular target: Induced myeloid leukemia cell differentiation protein Mcl-1 (Homo sapiens) (UniProt Q07820)
Assay: Mcl-1/Noxa binding inhibitor potency, dose response, biochemical, TR-FRET (AID 1417)
Conditions: Mcl-1/Noxa peptide interaction, cell-free TR-FRET (terbium/rhodamine), 2 h; measured here: absolute IC50

Induced myeloid leukemia cell differentiation protein Mcl-1 (Homo sapiens), sequence (Q07820 whole entry, looked up): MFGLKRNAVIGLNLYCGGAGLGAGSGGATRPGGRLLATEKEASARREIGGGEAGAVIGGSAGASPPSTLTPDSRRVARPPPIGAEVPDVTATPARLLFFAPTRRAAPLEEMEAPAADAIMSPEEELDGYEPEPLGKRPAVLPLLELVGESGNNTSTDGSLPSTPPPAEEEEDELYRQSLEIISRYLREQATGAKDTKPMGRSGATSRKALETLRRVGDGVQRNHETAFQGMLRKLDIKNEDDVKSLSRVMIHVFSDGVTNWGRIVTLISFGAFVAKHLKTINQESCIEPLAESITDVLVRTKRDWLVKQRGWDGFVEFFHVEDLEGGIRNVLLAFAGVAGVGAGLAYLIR

Row | SMILES | IC50 [µM]
1 | CNc1ccc(Br)cc(C(=O)/C=C/c2ccc(OC)cc2OC)c1=O | 3.53
2 | O=C1N=c2ccccc2=C1c1c(O)n(-c2cccc(F)c2)[nH]c1=O | < 0.4
3 | O=C1CC(=O)c2c1cccc2[N+](=O)[O-] | 2.56
4 | Cc1ccc(NC(=O)CSc2nnc(-c3ccco3)c(-c3ccco3)n2)cc1 | 3.29
5 | CN(C)c1ccc(/C=N/N(Cc2ccccc2)c2ccccc2)cc1 | > 54
6 | Nc1c(C(=O)NCC2CCCO2)sc2nc3c(c(-c4ccco4)c12)CC/C3=C\c1ccco1 (centres undefined) | 0.8
7 | Cc1nn(CC(=O)Nc2ccc(N(C)C)cc2)c(C)c1[N+](=O)[O-] | > 54
8 | O=C(Nc1ccc(N2CCCC2)cc1)c1ccc2ccccc2c1 | 4.97
9 | O=[N+]([O-])c1cc(Cl)cc(/C=N/NC(=S)Nc2ccc(S(=O)(=O)N3CCOCC3)cc2)c1O | < 0.4
10 | O=C(O)c1ccccc1NS(=O)(=O)c1ccc(NNC(=S)Nc2ccc(OC(F)F)cc2)c([N+](=O)[O-])c1 | < 0.4
11 | Cc1cc(=O)oc2cc(OCc3ccc(C(=O)OCC(=O)Nc4ccc(N(C)C)cc4)cc3)ccc12 | < 0.4
12 | Cc1nnc(NC(=O)COc2ccc3c(C)cc(=O)oc3c2)s1 | 5.88
13 | COc1cccc(NS(=O)(=O)c2ccc3c(c2)C2C=CCC2C(c2ccc(C(=O)O)cc2)N3)c1 (centres undefined) | 1.02
14 | Oc1cccc2cc3cccc(O)c3c(O)c12 | 1.96
15 | COc1ccc(NC(=S)NNc2ccc(S(=O)(=O)Nc3ccccc3C(=O)O)cc2[N+](=O)[O-])cc1 | > 54
16 | COc1cc(/C=C2\SC(=O)N(Cc3ccc(F)cc3)C2=O)cc([N+](=O)[O-])c1O | 7.01
17 | O=C(Nc1ccc([N+](=O)[O-])cc1)Nc1nc(-c2ccc(Cl)s2)cs1 | 1.82
18 | CC(=O)NC1=C(NC2CCS(=O)(=O)C2)C(=O)c2ccccc2C1=O (centres undefined) | 2.77
19 | COc1cc(/C=C(\C#N)c2nc3ccccc3s2)cc([N+](=O)[O-])c1O | 3.37
20 | O=C1NC(=S)NC(=O)C1=Cc1ccc2c(c1)CCN2CCCCl | < 0.4
21 | CC(/C=C1\SC(=S)N(NS(=O)(=O)c2ccccc2)C1=O)=C\c1ccccc1 | 17.9
22 | COc1ccc(CC(=O)n2[nH]c(=O)ccc2=O)cc1OC | < 0.4
23 | CCOC(=O)c1c(CSc2ccc(C)cc2)n(C)c2cc(Br)c(O)c(CN(C)C)c12 | 3.33
24 | Cc1cccc(NC(=O)CN2C(=O)N/C(=C/c3ccc(C)o3)C2=O)c1 | > 54
25 | O=C(NCC1CCCO1)c1ccc(Cn2c(=S)[nH]c3ccccc3c2=O)cc1 (centres undefined) | > 54

Row | SMILES | IC50 [µM]
26 | O=c1cc2c(=O)oc3cc(O)c(O)oc3c2c(O)c1O | < 0.4
27 | CN(c1ccccc1)c1ccc(/C=C(\CCC(=O)O)c2nc3ccccc3s2)cc1[N+](=O)[O-] | 1.06
28 | Cc1cc2nc(/C=C/c3nc4cc(C)c(C)cc4[nH]3)[nH]c2cc1C | 4.54
29 | O=C(/C=C/c1ccc(O)c(O)c1)O[C@H](Cc1ccc(O)c(O)c1)C(=O)O | < 0.4
30 | Cc1cccc(N=C2NC(=O)/C(=C/C=C/c3ccco3)S2)c1C | 4.15
31 | COc1ccc(N2Cc3cccc(C(=O)O)c3C2=O)cc1 | 4.79
32 | Cc1ccc(N2C(=O)NC(=O)/C(=C/c3ccoc3)C2=O)cc1 | 4.36
33 | Cc1ccc(/C=C2\SC(=S)N(/N=C/c3cc([N+](=O)[O-])ccc3O)C2=O)o1 | < 0.4
34 | CCNc1ccc(Br)cc(C(=O)/C=C/c2c(Cl)cccc2Cl)c1=O | 1.8
35 | CCN(CC)c1ccc(NC(=O)CCNC(=O)c2ccco2)cc1 | > 54
36 | O=C(C1=C[C@@H](c2ccc(C(F)(F)F)cc2)C[C@@H](OCc2ccc(CO)cc2)O1)N1CCN(Cc2ccccc2)CC1 | > 54
37 | O=C(O)c1ccccc1-c1ccc(/C=c2\sc3nc4cc(Br)cnc4n3c2=O)o1 | 3.09
38 | O=C(O)Cc1c[nH]c2cccc(O)c12 | 0.81
39 | O=C(O)COc1ccccc1C(Nc1cccnc1)c1cc(Cl)c2cccnc2c1O (centres undefined) | < 0.4
40 | Oc1ccc(/C=N/Nc2nc(-c3cccnc3)nc3ccccc23)c(O)c1 | > 54
41 | Cc1ccc(C(C)C)c(OCc2ccc(C(=O)N/N=C/c3ccc(O)cc3O)cc2)c1 | 13.3
42 | O=C(CN1C(=O)/C(=C2\SC(=S)N(C3CCS(=O)(=O)C3)C2=O)c2ccccc21)Nc1ccc(F)cc1 (centres undefined) | 2.07
43 | CCCCn1c(-c2ccc(Cl)cc2)nc2c(=O)n(C)c(=O)[nH]c21 | > 54
44 | N=c1c(C(=O)NCc2ccc(F)cc2)cc2c(=O)n3ccccc3nc2n1Cc1cccnc1 | 3.21
45 | O=[N+]([O-])C(=c1ccc2c(c1)N1C3=C(CCCC3)CC3CCCCC31N=2)[N+](=O)[O-] (centres undefined) | < 0.4
46 | Cc1cc(NS(=O)(=O)c2ccc(Nc3nc(-c4sc(NC(=O)c5ccccc5)nc4C)cs3)cc2)no1 | 1.77
47 | COc1ccccc1C(=O)N=Nc1c(O)[nH]c2ccc([N+](=O)[O-])cc12 | 4.72
48 | NC(=O)c1c(NC(=O)CSc2nnc(-c3ccco3)n2-c2ccccc2)sc2c1CCC2 | 5.75
49 | COc1ccc2nc(Nc3sc4c(c3C(N)=O)CCCC4)sc2c1 | < 0.4
50 | COc1ccc2c(c1)c1ccc3c(c1n2C)C(=O)C=CC3=O | < 0.4

Row | SMILES | IC50 [µM]
51 | O=C1NC(=S)N/C1=C/c1ccc(-c2c(Br)cc([N+](=O)[O-])cc2Br)o1 | 1.45
52 | O=C1NC(=Nc2ccccc2)S/C1=C\C=C\c1ccco1 | < 0.4
53 | O=C(CSc1nnc(-c2ccco2)c(-c2ccco2)n1)Nc1ccccc1 | 2.92
54 | COc1ccc(NC(C)C(=O)Nc2ccc(C#N)cc2)cc1Cl (centres undefined) | > 54
55 | O=C(O)CCN1C(=O)/C(=C\c2ccc(-c3nc4ccccc4s3)o2)SC1=S | < 0.4
56 | COc1ccc(/C=C/C(=O)NC(=S)Nc2cc([N+](=O)[O-])ccc2O)cc1OC | 1.12
57 | CCCCn1c(SCC(=O)NCCOC)nc2ccc(N3CCOCC3)cc2c1=O | > 54
58 | CCN(c1ccc(NC(=O)COC(=O)c2cc3ccccc3oc2=O)cc1)C(C)C | > 54
59 | Oc1ccc(N=Nc2cccc(Cl)c2)cc1C=Nc1ccc(N2CCOCC2)cc1 | > 54
60 | CN(C)c1ccc(NC(=O)c2ccc([N+](=O)[O-])cc2Cl)cc1 | > 54
61 | CCOC(=O)c1c(NC(=O)N/N=C/c2ccc(O)c(OC)c2)sc(C(C)=O)c1C | 1.59
62 | COc1ccc(NC(=O)c2cc3cccc(OC)c3oc2=Nc2ccc(C(=O)O)cc2)cc1OC | 2.38
63 | O=C1CC(N2CCN(S(=O)(=O)c3ccccc3)CC2)C(=O)N1c1ccccc1 (centres undefined) | > 54
64 | CC1CC(=O)c2c(cc3c(-c4c(O)cc(O)c5c(O)c6c(cc45)OC(C)CC6=O)c(O)cc(O)c3c2O)O1 (centres undefined) | < 0.4
65 | O=[N+]([O-])c1ccc(-c2cn(-c3ccc(Cl)cc3)c(=S)[nH]2)cc1 | 7.17
66 | CN(C)S(=O)(=O)c1cccc(-c2nn(-c3ccccc3)cc2/C=C2\SC(=S)N(CC(=O)O)C2=O)c1 | 4.28
67 | COc1ccc(CN2C(=O)/C(=C/c3ccc(-c4ccc(Cl)c(C(=O)O)c4)o3)SC2=S)cc1 | 1.56
68 | COc1ccc(C(c2c(O)cc(C)oc2=O)c2c(O)cc(C)oc2=O)cc1 | > 54
69 | CCNc1nc(NCC)nc(C(=O)NN)n1 | < 0.4
70 | C=CCOC(=O)/C(=C\c1ccccc1)NC(=O)c1ccc(C)cc1 | > 54
71 | O=C(CN1C(=O)/C(=C2\SC(=S)N(C3CCS(=O)(=O)C3)C2=O)c2ccccc21)Nc1ccccc1 (centres undefined) | < 0.4
72 | O=C1/C(=C/c2ccccn2)SC(=S)N1c1ccc(O)cc1 | 8.38
73 | COc1cc2c(-c3ccc(O)cc3)nc3c(c(C)nn3-c3ccccc3)c2cc1OC | 1.19
74 | Cc1[nH]n(-c2ncc(-c3ccc(Cl)cc3)s2)c(=O)c1C(c1ccc(Cl)cc1)C(C#N)C#N (centres undefined) | 1.67

— PubChem BioAssay AID1417 (Emory University Molecular Libraries Screening Center, 2008)
